Results from patent US10261079B2, “Method for determining kinetic profiles in drug discovery” (priority 2015, dated 2019).
Values belong to the compound of their own block, whether it stands above or below them.

Tests used:
CDK8/Cyclin C = CDK8/Cyclin C (Homo sapiens, UniProt P49336); assay: TR-FRET kinetic competitive binding, Kinetic Selectivity Profiling mode; settings: Tracer 236 10 nM, kinase 2 nM
Excerpt: SQRT is the mathematical abbreviation for squared root. X is time, expressed in min.

PI3Kdelta = target: T1, PI3Kdelta (Homo sapiens, UniProt O00329); assay: TR-FRET kinetic competitive binding, Binding Kinetic Profiling mode; settings: Tracer 314 5 nM, compound 250 nM to 0
T1 construct: purchased Carna Biosciences
T1 sequence (O00329 whole entry): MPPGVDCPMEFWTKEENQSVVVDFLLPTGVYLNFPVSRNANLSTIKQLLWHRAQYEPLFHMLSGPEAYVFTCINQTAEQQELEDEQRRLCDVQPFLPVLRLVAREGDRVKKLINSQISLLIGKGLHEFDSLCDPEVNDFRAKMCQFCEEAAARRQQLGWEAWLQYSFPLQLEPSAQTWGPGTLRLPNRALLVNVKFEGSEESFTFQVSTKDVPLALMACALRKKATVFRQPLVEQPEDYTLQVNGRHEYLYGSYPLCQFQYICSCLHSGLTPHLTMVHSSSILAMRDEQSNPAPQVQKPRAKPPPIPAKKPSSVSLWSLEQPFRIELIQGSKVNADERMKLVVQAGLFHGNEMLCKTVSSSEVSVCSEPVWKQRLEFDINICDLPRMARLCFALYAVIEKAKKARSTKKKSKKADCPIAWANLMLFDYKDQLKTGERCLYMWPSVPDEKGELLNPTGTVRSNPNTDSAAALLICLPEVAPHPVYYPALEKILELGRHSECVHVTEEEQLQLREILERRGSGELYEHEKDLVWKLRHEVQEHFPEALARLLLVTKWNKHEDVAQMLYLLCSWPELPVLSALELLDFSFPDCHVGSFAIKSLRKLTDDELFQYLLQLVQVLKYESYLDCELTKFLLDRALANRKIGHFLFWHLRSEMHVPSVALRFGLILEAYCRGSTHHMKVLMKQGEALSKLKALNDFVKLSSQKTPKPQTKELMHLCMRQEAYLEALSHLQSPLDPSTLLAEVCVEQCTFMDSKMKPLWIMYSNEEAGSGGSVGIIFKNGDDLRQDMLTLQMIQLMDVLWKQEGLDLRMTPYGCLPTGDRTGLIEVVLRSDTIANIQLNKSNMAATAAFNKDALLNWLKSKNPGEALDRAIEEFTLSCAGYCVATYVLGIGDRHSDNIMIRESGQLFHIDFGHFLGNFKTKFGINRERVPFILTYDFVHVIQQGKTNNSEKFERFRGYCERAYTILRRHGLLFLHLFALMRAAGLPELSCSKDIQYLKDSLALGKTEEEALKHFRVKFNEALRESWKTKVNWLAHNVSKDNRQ
T1 sequence (P27986 whole entry partner): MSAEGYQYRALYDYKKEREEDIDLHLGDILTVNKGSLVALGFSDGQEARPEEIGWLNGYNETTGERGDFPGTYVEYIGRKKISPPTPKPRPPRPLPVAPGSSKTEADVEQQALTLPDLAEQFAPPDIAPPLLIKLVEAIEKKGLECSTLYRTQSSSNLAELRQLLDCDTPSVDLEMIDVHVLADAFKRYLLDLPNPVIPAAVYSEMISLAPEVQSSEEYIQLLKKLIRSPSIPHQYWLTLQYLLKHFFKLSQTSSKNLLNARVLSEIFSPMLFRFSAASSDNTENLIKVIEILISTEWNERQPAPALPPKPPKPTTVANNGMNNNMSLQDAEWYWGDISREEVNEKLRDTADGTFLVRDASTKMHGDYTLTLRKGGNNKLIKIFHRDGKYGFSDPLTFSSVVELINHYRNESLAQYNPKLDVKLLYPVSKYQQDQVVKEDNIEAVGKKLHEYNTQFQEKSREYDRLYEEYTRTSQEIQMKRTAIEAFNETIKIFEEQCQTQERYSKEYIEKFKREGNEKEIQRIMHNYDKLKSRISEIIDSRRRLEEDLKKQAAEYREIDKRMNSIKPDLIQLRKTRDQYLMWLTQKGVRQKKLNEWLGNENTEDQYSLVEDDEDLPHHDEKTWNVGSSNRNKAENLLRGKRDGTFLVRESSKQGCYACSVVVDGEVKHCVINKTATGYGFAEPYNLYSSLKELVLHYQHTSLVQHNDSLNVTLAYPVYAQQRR
Excerpt: X is time, expressed in min.
The present example illustrates the kinetic characterization of two different inhibitors against the same target by using the platform of the invention in the Binding Kinetic Profiling mode. […] The characterized Tracer^314 (Life Technologies) has been used as labeled ligand (tracer).
In order to determine the kinetic profile of these inhibitors (Kon, Koff, Kd and t1/2), experimental data were fitted to the “Kinetics of competitive binding”. This model describes the kinetic behavior of two compounds when compete for the binding to the same target.
The experiment is performed as described in Example 1 for the tracer characterization. The samples are prepared in the kinase buffer A at the same concentrations described in example 1 (PI3Kdelta at 0.5 nM and Eu-antiGST antibody at 2 nM). Control wells in the microplate with PI-103 inhibitor at 10 μM are also included to account for unspecific binding. […] These serial dilutions were prepared in a mother plate (at 2 times the assay concentration) and quickly dispensed to the analysis plate, being the last one disposed in the well the kinase PI3Kdelta.
The tracer concentration (L) is also constrained to the tracer concentration employed in the assay, i.e., 5 nM in the present example. […] The term t1/2 is calculated as −ln[0.5] divided by the K4 value.

CDK8/Cyclin C, sequence (P49336 whole entry, species assumed): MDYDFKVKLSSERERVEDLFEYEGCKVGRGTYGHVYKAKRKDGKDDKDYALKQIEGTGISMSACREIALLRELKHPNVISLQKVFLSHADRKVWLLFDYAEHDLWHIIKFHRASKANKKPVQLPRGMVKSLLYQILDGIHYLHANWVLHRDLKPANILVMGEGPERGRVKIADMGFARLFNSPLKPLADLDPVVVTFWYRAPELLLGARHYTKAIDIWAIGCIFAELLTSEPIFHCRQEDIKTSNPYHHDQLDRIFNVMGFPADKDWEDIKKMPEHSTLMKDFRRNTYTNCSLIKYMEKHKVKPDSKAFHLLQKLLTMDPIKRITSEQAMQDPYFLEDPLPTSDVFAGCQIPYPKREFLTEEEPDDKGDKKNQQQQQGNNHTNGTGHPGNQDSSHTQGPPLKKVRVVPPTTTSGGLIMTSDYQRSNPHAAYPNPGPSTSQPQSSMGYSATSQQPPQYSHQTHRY
CDK8/Cyclin C, sequence (P24863 whole entry partner, species assumed): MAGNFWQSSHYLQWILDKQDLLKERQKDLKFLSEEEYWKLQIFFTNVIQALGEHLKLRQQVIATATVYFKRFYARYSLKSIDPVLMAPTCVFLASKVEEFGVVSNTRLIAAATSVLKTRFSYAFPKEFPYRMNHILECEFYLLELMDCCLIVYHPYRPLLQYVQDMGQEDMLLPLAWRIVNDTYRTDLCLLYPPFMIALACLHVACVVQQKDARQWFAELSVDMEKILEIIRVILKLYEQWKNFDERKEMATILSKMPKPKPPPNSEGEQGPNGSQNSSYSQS

SMILES: CN[C@@H]1C[C@H]2O[C@@](C)([C@@H]1OC)n1c3ccccc3c3c4c(c5c6ccccc6n2c5c31)C(=O)NC4 [Staurosporine]
- duration of the interaction with CDK8 (CDK8/Cyclin C): 20 min

SMILES: COC[C@H]1OC(=O)c2coc3c2[C@@]1(C)C1=C(C3=O)[C@@H]2CCC(=O)[C@@]2(C)C[C@H]1OC(C)=O [Wortmanine]
- dissociative half-life of the complex with PI3Kdelta (t1/2) (PI3Kdelta): around 300 min

- dissociation from the target (PI3Kdelta): mili-seconds
SMILES: Cn1c(=O)n(-c2ccc(C(C)(C)C#N)cc2)c2c3cc(-c4cnc5ccccc5c4)ccc3ncc21 [BEZ235]
